For four molecules, Efficacy results are on record in patent publication US20220265694A1, “COMPOSITIONS AND METHODS FOR TREATING AN INFECTION” (CMPD LICENSING, LLC, priority 2016, published 2022).

In one assay the test system is Candida species. Description: Expected efficacy of antifungal agents. The conditions noted are these: expected efficacy against Candida species.
A further assay relates to Aspergillus niger. In words: Expected efficacy of antifungal agents. The conditions noted are these: expected efficacy against Aspergillus niger.
The next assay deals with Fusarium species. Description: Expected efficacy of antifungal agents. The conditions noted are these: expected efficacy against Fusarium species.
In another assay the test system is Aspergillus fumigatus. Description: Expected efficacy of antifungal agents. The settings on record: expected efficacy against Aspergillus fumigatus.
The next assay concerns Aspergillus terreus. In words: Expected efficacy of antifungal agents. The conditions noted are these: expected efficacy against Aspergillus terreus.
A further assay has as its system Scedosporium apiospermum. Description: Expected efficacy of antifungal agents. The settings on record: expected efficacy against Scedosporium apiospermum.
The subject of a further assay is Aspergillus flavus. In words: Expected efficacy of antifungal agents. The conditions noted are these: expected efficacy against Aspergillus flavus.
The next assay concerns Enterococcus faecalis. Description: Expected efficacy of antibiotic agents. The conditions noted are these: expected efficacy against Enterococcus faecalis; Gram: pos.
In another assay the test system is Pseudomonas fluorescens. In words: Expected efficacy of antibiotic agents. The settings on record: expected efficacy against Pseudomonas fluorescens; Gram: neg.
The subject of another assay is Mycoplasma pneumoniae. In words: Expected efficacy of antibiotic agents. The conditions noted are these: expected efficacy against Mycoplasma pneumoniae; Gram: n/a.
The test system of the next assay is Bordetella pertussis. Description: Expected efficacy of antibiotic agents. The conditions noted are these: expected efficacy against Bordetella pertussis; Gram: neg.
In the next assay the test system is Clostridium difficile. In words: Expected efficacy of antibiotic agents. The conditions noted are these: expected efficacy against Clostridium difficile; Gram: anaer.
A further assay deals with Corynebacterium jeikeium. In words: Expected efficacy of antibiotic agents. The conditions noted are these: expected efficacy against Corynebacterium jeikeium; Gram: pos.
The test system of a further assay is Enterobacter sakazakii. In words: Expected efficacy of antibiotic agents. The conditions noted are these: expected efficacy against Enterobacter sakazakii; Gram: neg.
For a further assay, the system named is Legionella pneumophila. The settings on record: expected efficacy against Legionella pneumophila; Gram: neg.
The next assay has as its system Streptococcus agalactiae. In words: Expected efficacy of antibiotic agents. The conditions noted are these: expected efficacy against Streptococcus agalactiae; Gram: pos.
Another assay deals with Streptococcus pneumoniae. In words: Expected efficacy of antibiotic agents. The settings on record: expected efficacy against Streptococcus pneumoniae; Gram: pos.
A further assay relates to Providencia stuartii. Description: Expected efficacy of antibiotic agents. The conditions noted are these: expected efficacy against Providencia stuartii; Gram: neg.
The next assay deals with Proteus mirabilis. Description: Expected efficacy of antibiotic agents. The conditions noted are these: expected efficacy against Proteus mirabilis; Gram: neg.
The test system of the next assay is Serratia marcescens. Description: Expected efficacy of antibiotic agents. The settings on record: expected efficacy against Serratia marcescens; Gram: neg.
In a further assay the test system is Enterobacter cloacae. Description: Expected efficacy of antibiotic agents. The conditions noted are these: expected efficacy against Enterobacter cloacae; Gram: neg.
The test system of a further assay is Proteus vulgaris. In words: Expected efficacy of antibiotic agents. The settings on record: expected efficacy against Proteus vulgaris; Gram: neg.
The test system of assay [1] is Staphylococcus epidermidis. In words: Expected efficacy of antibiotic agents. The conditions noted are these: expected efficacy against Staphylococcus epidermidis; Gram: pos.
A further assay relates to Chlamydia psittaci. The conditions noted are these: expected efficacy against Chlamydia psittaci; Gram: n/a.
The subject of another assay is Chlamydia trachomatis. Description: Expected efficacy of antibiotic agents. The conditions noted are these: expected efficacy against Chlamydia trachomatis; Gram: n/a.
Assay [2] has as its system Viridans group streptococci. In words: Expected efficacy of antibiotic agents. The settings on record: expected efficacy against Viridans group streptococci; Gram: pos.
Assay [3] has as its system Klebsiella (Calymmatobacterium). In words: Expected efficacy of antibiotic agents. The settings on record: expected efficacy against Klebsiella (Calymmatobacterium); Gram: neg.
The test system of a further assay is Enterococcus faecium. Description: Expected efficacy of antibiotic agents. The conditions noted are these: expected efficacy against Enterococcus faecium; Gram: pos.
A further assay concerns Neisseria meningitidis. Description: Expected efficacy of antibiotic agents. The settings on record: expected efficacy against Neisseria meningitidis; Gram: neg.
In another assay the test system is Klebsiella pneumoniae. Description: Expected efficacy of antibiotic agents. The settings on record: expected efficacy against Klebsiella pneumoniae; Gram: neg.
In a further assay the test system is Peptostreptococcus. Description: Expected efficacy of antibiotic agents. The settings on record: expected efficacy against Peptostreptococcus; Gram: pos.
The subject of another assay is Klebsiella oxytoca. In words: Expected efficacy of antibiotic agents. The settings on record: expected efficacy against Klebsiella oxytoca; Gram: neg.
The subject of the next assay is Moraxella catarrhalis. Description: Expected efficacy of antibiotic agents. The conditions noted are these: expected efficacy against Moraxella catarrhalis; Gram: neg.
For a further assay, the system named is Enterobacter aerogenes. Description: Expected efficacy of antibiotic agents. The conditions noted are these: expected efficacy against Enterobacter aerogenes; Gram: neg.
The next assay concerns Neisseria gonorrhoeae. Description: Expected efficacy of antibiotic agents. The conditions noted are these: expected efficacy against Neisseria gonorrhoeae; Gram: neg.
A further assay relates to Streptococcus pyogenes. In words: Expected efficacy of antibiotic agents. The settings on record: expected efficacy against Streptococcus pyogenes; Gram: pos.
The subject of another assay is Vibrio cholerae. In words: Expected efficacy of antibiotic agents. The settings on record: expected efficacy against Vibrio cholerae; Gram: neg.
The subject of another assay is Bacteroides fragilis. In words: Expected efficacy of antibiotic agents. The conditions noted are these: expected efficacy against Bacteroides fragilis; Gram: anaer.
A further assay deals with Escherichia coli. In words: Expected efficacy of antibiotic agents. The settings on record: expected efficacy against Escherichia coli; Gram: neg.
In assay [4] the test system is Staphylococcus aureus (MSSA). In words: Expected efficacy of antibiotic agents. The settings on record: expected efficacy against Staphylococcus aureus (MSSA); Gram: pos.
Assay [5] has as its system Corynebacterium urealyticum. In words: Expected efficacy of antibiotic agents. The settings on record: expected efficacy against Corynebacterium urealyticum; Gram: pos.
For another assay, the system named is Providencia rettgeri. Description: Expected efficacy of antibiotic agents. The conditions noted are these: expected efficacy against Providencia rettgeri; Gram: neg.
Assay [6] deals with Methicillin resistant staph aureus (MRSA). Description: Expected efficacy of antibiotic agents. The settings on record: expected efficacy against Methicillin resistant staph aureus (MRSA); Gram: pos.
The subject of the next assay is Pseudomonas aeruginosa. In words: Expected efficacy of antibiotic agents. The conditions noted are these: expected efficacy against Pseudomonas aeruginosa; Gram: neg.
The test system of a further assay is Chlamydia pneumoniae. Description: Expected efficacy of antibiotic agents. The conditions noted are these: expected efficacy against Chlamydia pneumoniae; Gram: n/a.
Another assay has as its system Brucella species. The settings on record: expected efficacy against Brucella species; Gram: neg.
The test system of assay [7] is Haemophilus parainfluenzae. In words: Expected efficacy of antibiotic agents. The conditions noted are these: expected efficacy against Haemophilus parainfluenzae; Gram: neg.
The next assay has as its system Diphtheroids. In words: Expected efficacy of antibiotic agents. The conditions noted are these: expected efficacy against Diphtheroids; Gram: pos.
In the next assay the test system is Blastomyces dermatitidis. Description: Expected efficacy of antifungal agents. The conditions noted are these: expected efficacy against Blastomyces dermatitidis.
Another assay concerns Leishmania infantum. Description: Expected efficacy of antifungal agents. The conditions noted are these: expected efficacy against Leishmania infantum.
Another assay relates to Leishmania donovani. Description: Expected efficacy of antifungal agents. The settings on record: expected efficacy against Leishmania donovani.
The next assay concerns Cryptococcus neoformans. In words: Expected efficacy of antifungal agents. The conditions noted are these: expected efficacy against Cryptococcus neoformans.
A further assay concerns Histoplasma capsulatum. The conditions noted are these: expected efficacy against Histoplasma capsulatum.
The subject of another assay is Coccidioides immitis. The settings on record: expected efficacy against Coccidioides immitis.
Assay [8] deals with Paracoccidioides brasiliensis. Description: Expected efficacy of antifungal agents. The settings on record: expected efficacy against Paracoccidioides brasiliensis.

`C[C@@H](c1ncncc1F)[C@](O)(Cn1cncn1)c1ccc(F)cc1F` [Voriconazole]: the Efficacy result in the assay with Candida species, with Aspergillus niger, in the assay on Fusarium species, in the assay on Aspergillus fumigatus, in the assay on Aspergillus terreus and with Scedosporium apiospermum was “yes” in each case. Further, the Efficacy entry in the assay on Aspergillus flavus is on record as “yes”.

Take Colistimethate: the Efficacy entry with Enterococcus faecalis is “no”; in the assay with Pseudomonas fluorescens it was “yes”; in the assay on Mycoplasma pneumoniae, “no”; in the assay on Bordetella pertussis it was “no”; in the assay on Clostridium difficile it was “no”; with Corynebacterium jeikeium it was “no”. The Efficacy entry in the assay on Enterobacter sakazakii is reported as “yes”; in the assay on Legionella pneumophila, “no”; in the assay with Streptococcus agalactiae, “no”; with Streptococcus pneumoniae, “no”; in the assay with Providencia stuartii it was “no”; with Proteus mirabilis it was “no”. In addition, the Efficacy entry is reported as “no” with Serratia marcescens; “yes” in the assay on Enterobacter cloacae; “no” in the assay on Proteus vulgaris; “no” in assay [1]; “no” with Chlamydia psittaci; “no” in the assay with Chlamydia trachomatis. For the same molecule, the Efficacy entry is reported as “no” in assay [2]; “yes” in [3]; “no” with Enterococcus faecium; “no” with Neisseria meningitidis; “yes” with Klebsiella pneumoniae; “no” in the assay with Peptostreptococcus. Besides, the Efficacy result with Klebsiella oxytoca is “yes”; in the assay with Moraxella catarrhalis it was “no”; in the assay on Enterobacter aerogenes it was “yes”; in the assay on Neisseria gonorrhoeae, “no”; with Streptococcus pyogenes it was “no”; with Vibrio cholerae, “no”. Further, the Efficacy result with Bacteroides fragilis is given as “no”; in the assay on Escherichia coli, “yes”; in assay [4], “no”; in [5] it was “no”; in the assay on Providencia rettgeri, “no”; in assay [6] it was “no”. The Efficacy entry in the assay with Pseudomonas aeruginosa is reported as “yes”; in the assay on Chlamydia pneumoniae, “no”; with Brucella species, “no”; in assay [7], “no”; with Diphtheroids, “no”.

Take `C[C@@H]1[C@H](O)[C@@H](C)/C=C/C=C/C=C/C=C/C=C/C=C/C=C/[C@H](O[C@@H]2O[C@H](C)[C@@H](O)[C@H](N)[C@@H]2O)C[C@@H]2O[C@](O)(C[C@@H](O)C[C@@H](O)[C@H](O)CC[C@@H](O)C[C@@H](O)CC(=O)O[C@H]1C)C[C@H](O)[C@H]2C(=O)O` [Amphotericin]: the Efficacy result in the assay on Blastomyces dermatitidis, in the assay with Leishmania infantum, in the assay with Candida species, in the assay with Aspergillus niger, in the assay on Leishmania donovani and in the assay with Aspergillus fumigatus was “yes” in each case. The Efficacy result (with Cryptococcus neoformans; in the assay with Histoplasma capsulatum; in the assay on Aspergillus terreus; in the assay on Coccidioides immitis; in assay [8]; with Aspergillus flavus) was “yes” throughout.

As to `OC(Cn1cncn1)(Cn1cncn1)c1ccc(F)cc1F` [Fluconazole], the Efficacy result with Blastomyces dermatitidis, in the assay with Candida species, with Aspergillus fumigatus, with Cryptococcus neoformans, in the assay with Histoplasma capsulatum and with Coccidioides immitis was “yes” each time. The Efficacy result with Aspergillus flavus is reported as “yes”.
